One assay relates to NOD2/HEKBlue cells. Kind of assay: hNOD2-HEKBlue L18-MDP-induced NF-κB reporter assay. The format is cell-based, human. To be noted: Homo sapiens, HEK-Blue; L18-MDP-induced NF-κB reporter; average ± SD of at least three titrations. The procedure: For HEKBlue assay, cells were seeded into clear 96‐well plates at 7.5 × 10^3 cells/well and allowed to attach for 48 h. On the day of the experiment, media was changed to 100 μl of HEKBlue detection media (InvivoGen). Inhibitors were diluted and added in 0.5 μl DMSO 15 min prior to the addition of 1 ng/ml L18‐MDP (InvivoGen). After 8–9 h, absorbance at 620 nm was measured using Victor3V plate reader (Perkin Elmer, Waltham, MA). Values of media‐only wells were subtracted and %inhibition for each compound concentration relative to the DMSO/L18‐MDP‐treated controls was calculated. Inhibition values ± SD were fitted by non‐linear regression using Prism software (GraphPad Software, La Jolla, CA) to calculate IC50 values. For THP1Blue assay, 1 × 10^5 cells were seeded in 200 μl of RPMI media in 96‐well plates and treated with inhibitors in 0.5 μl DMSO for 15 min prior to the addition of 10 μg/ml MDP, 10 ng/ml Pam3CSK4, 10 ng/ml E. coli LPS, or 1 × 10^7 cells/ml heat‐killed L. monocytogenes (InvivoGen) for 24 h. After induction, 20 μl of media was mixed with 180 μl of QUANTI‐Blue reagent (InvivoGen) and incubated at 37°C for 3–4 h, followed by absorbance measurement at 620 nm. IC50 values were calculated as described for HEKBlue assay.
Cayman Chemical Company, Ann Arbor, MI), GSK583 (#HY-100339, MedChem Express, South Brunswick, NJ), WEHI-345 (MedKoo Biosciences, Morrisville, NC), Compound A (CpA, a kind gift from TetraLogic Pharmaceuticals, Malvern, PA). Generation of the CSLP compound series is described in Suebsuwong et al. 2018 (manuscript in preparation). hNOD2-HEKBlue and THP1Blue assays
For HEKBlue assay, cells were seeded into clear 96 well plates at 7.5x10^3 cells/well and allowed to attach for 48 h. On the day of the experiment, media was changed to 100 μl of HEKBlue detection media (InvivoGen). Inhibitors were diluted and added in 0.5 μl DMSO 15 min prior to the addition of 1 ng/ml L18-MDP (InvivoGen). After 8-9 h, absorbance at 620 nm was measured using Victor3V plate reader (Perkin Elmer, Waltham, MA). Values of media-only wells were subtracted and %inhibition for each compound concentration relative to the DMSO/L18-MDP-treated controls were calculated.
Inhibition values + StDev were fitted by non-linear regression using Prism software (GraphPad Software, La Jolla, CA) to calculate IC50 values. For THP1Blue assay, 1x10^5 cells were seeded in 200 μl of RPMI media in 96 well plates and treated with inhibitors in 0.5 μl DMSO 15 min prior to the addition of 10 µg/ml MDP, 10 ng/ml Pam3CSK4, 10 ng/ml E. coli LPS or 1x10^7 cells/ml heat-killed L. monocytogenes (InvivoGen) for 24 h. After induction, 20 μl of media was mixed with 180 μl of QUANTI-Blue reagent (InvivoGen) and incubated at 37 °C for 3-4 h, followed by absorbance measurement at 620 nm. IC50 values were calculated as described for HEKBlue assay. […]

In assay [1] the target is T1, NanoLuc-RIPK2 (Homo sapiens, UniProt O43353).
T1 construct: host or cells: hNOD2-HEKBlue cells
Briefly: nanoBRET cellular RIPK2 target engagement assay in HEKBlue cells. As to conditions: average ± SD of at least three titrations, read-out: IC50, Cellular activity, nanoBRET RIPK2 binding. In general terms: BRET reads energy transfer from a luciferase to a nearby fluorophore.

Another assay concerns the target T2, recombinant RIPK2 kinase (Homo sapiens, UniProt O43353).
T2 construct: made in house
Kind of assay: RIPK2 ADPGlo in vitro kinase assay. The format is biochemical. As to conditions: average ± SD of at least three titrations, read-out: IC50, In vitro kinase, RIPK2 ADPGIo. An excerpt:
The BIR2 domains of XIAP and cIAP1 were cloned into the pGEX‐6P1 vector and were expressed in E. coli (BL21) cells as a fusion protein with N‐terminal 6xHis (XIAP BIR2 only) and GST tags. Protein expression was induced with IPTG, and cells were lysed using BugBuster protein extraction reagent (#70921, Merck Millipore) according to manufacturer's instructions. Proteins were purified with the FPLC protein purification system ÄKTA PrimePlus (GE Healthcare Life Sciences) using HisTrap FF column purification followed by gel filtration (HiLoad 26/600 Superdex 75 pg (GE Healthcare Life Sciences)). Collected fractions were stored at −80°C and used for probing of peptide array membranes. Expression and purification of recombinant RIPK1‐3 was performed as previously described (Canning et al, 2015; Najjar et al, 2015). RIPK1‐3 ADPGlo kinase assays using 20 ng/well protein were performed for 2 h at room temperature also as previously described (Canning et al, 2015; Najjar et al, 2015).

In assay [2] the target is T1, NanoLuc-RIPK2. Briefly: nanoBRET cellular RIPK2 residence time assay in HEKBlue cells. The format is binding. To be noted: t1/2 for probe to engage RIPK2 after washout of inhibitor.
The subject of assay [3] is RIPK2 ubiquitination in U2OS/NOD2 and THP-1 cells. Kind of assay: Purification of Ub-conjugates (TUBE pulldown), RIPK2 ubiquitination. It is filed as cell-based, human. As to conditions: U2OS/NOD2 or THP-1 cells, L18-MDP 200 ng/ml, 1 h. The procedure:
For co‐immunoprecipitation of HA‐XIAP with RIPK2, transfected and treated cells were lysed in TBS buffer containing 0.5% NP‐40, cOmplete and PhosSTOP inhibitors (Roche) and the lysate was cleared by centrifugation. The lysates were incubated with anti‐HA‐agarose overnight, washed 3× with lysis buffer, and analyzed by immunoblotting. For GST pulldown experiments, U2OS/NOD2 cells were lysed in TBS lysis buffer containing 0.5% NP‐40, cOmplete and PhosSTOP inhibitors (Roche). Cleared lysates were pretreated with kinase inhibitors or DMSO and incubated with GST‐XIAP‐BIR2 bound to Glutathione Sepharose at 4°C overnight. Bound material was washed 3× with lysis buffer or PBS, eluted with 15 mM Glutathione in PBS, and analyzed by immunoblotting. […] The bound material was eluted and analyzed as described above. […]
PBS, eluted with 15 mM Glutathione in PBS and analyzed by immunoblotting. […]

Another assay has as its system U2OS/NOD2 cells. Briefly: Intracellular flow cytometry of CXCL8 after L18-MDP. To be noted: U2OS/NOD2 cells, L18-MDP 200 ng/ml, 4 h. The format is cell-based, human. The procedure: Purified material and lysates were analyzed by immunoblotting. […] Numbering below schematic refers to amino acid residues in human RIPK2 and indicate domain boundaries. […] Data information: Data in (A, B, D, H) represent the mean ± SEM of 2–4 independent experiments, each performed in duplicate. […] Two‐way ANOVA was used to determine statistical significance. See also Fig EV1.Source data are available online for this figure.
Dark gray represents areas occupied by RIPK2; white areas indicate empty spaces in CSLP binding pocket. […] Dotted black box indicates region shown for models with CSLP37 and CSLP43. • Molecular docking model of RIPK2 kinase domain in complex with CSLP43 (green) based on RIPK2/CSLP18 structure from (D). […] Two‐way ANOVA was used to determine statistical significance. See also Fig EV2.
GST-BIR2-XIAP as indicated. Intensity quantification of SPOTs was performed using ImageJ software
Dual luciferase reporter assay
Intracellular flow cytometry of CXCL8
for cell death) or vehicle for 24h. Viability was determined using the CellTiter-Glo® luminescent cell
together with Transfection Carrier DNA (Promega).
After addition of Nano-Glo

The target of a further assay is T3, His6‐GST‐XIAP‐BIR2 D214S (UniProt P98170 124-242, D214S).
T3 construct: not restated for the mutant; also called D214S BIR2 domain; D214S mutant; source: E. coli (BL21), purified (HisTrap FF, gel filtration); not shown: His6, N-terminal, kept; GST, N-terminal, kept
Kind of assay: peptide or protein array; SPOT assay: selected RIPK2 peptides and their Ala-/Leu-scan variants spotted in triplicate on cellulose, probed with 6xHis-GST-BIR2 of XIAP (WT or D214S), detected with anti-His-HRP, spots quantified with ImageJ. To be noted: both partners purified.

The IC50 is the concentration needed to halve the response being measured. On to `CCCS(=O)(=O)Nc1cc(-c2cc(-c3ccc(N4CCNCC4)cc3)cnc2N)ccc1OC` [CSLP18], for which the concentration for half-maximal inhibition (IC50) turned out to be 476 ± 96.7 nM in the assay on NOD2/HEKBlue cells, 578 ± 34.1 nM at NanoLuc-RIPK2 [1] and 31.6 ± 8.7 nM at recombinant RIPK2 kinase. Besides, the residence time on NanoLuc-RIPK2 [2] worked out at 66.6 min.

On to `CCCS(=O)(=O)Nc1cc(F)cc(-c2cc(-c3ccc(N4CCNCC4)cc3)cnc2N)c1` [CSLP38], for which the results for the IC50 with NOD2/HEKBlue cells, at NanoLuc-RIPK2 [1] and at recombinant RIPK2 kinase were 740 ± 60.7 nM, 167 ± 19 nM and 39.1 ± 1.5 nM, respectively. On NanoLuc-RIPK2 [2], this molecule registered a residence time of 106 min.

On to `CCCS(=O)(=O)Nc1cc(-c2cc(-c3ccc(N4CCNCC4)cc3)cnc2C)cc(F)c1OC` [CSLP53], for which the values for the IC50 in the assay with NOD2/HEKBlue cells, on NanoLuc-RIPK2 [1] and at recombinant RIPK2 kinase were 2560 nM, greater than 10000 nM and 1410 nM, respectively.

Take `CC(C)(C)S(=O)(=O)c1ccc2nccc(Nc3n[nH]c4ccc(F)cc34)c2c1` [GSK583, 6‐(tert‐Butylsulfonyl)‐N‐(5‐fluoro‐1H‐indazol‐3‐yl)quinolin‐4‐amine, reference compound]: the “RIPK2 ubiquitination after L18-MDP” value in assay [3] is on record as “antagonized”. The “L18-MDP-induced CXCL8 production” value in the assay with U2OS/NOD2 cells was “inhibited”.

B1: RIPK2 peptide A13 (residues 28‐42) (peptide, UniProt O43353 28-42, looked up)
peptide: ASGTVSSARHADWRV
notes: 15-mer of human RIPK2, residues 28-42 (β2 and the β2‐β3 loop of the N‐lobe of the kinase domain); also called A13 peptide
Regarding B1, the binding result in the assay with His6‐GST‐XIAP‐BIR2 D214S was “binds”.

B2: RIPK2 peptide E6 (residues 163–177) (peptide, UniProt O43353 163-177, looked up)
peptide: ADFGLSKWRMMSLSQ
notes: 15-mer of human RIPK2, residues 163-177
Take B2: the binding result with His6‐GST‐XIAP‐BIR2 D214S is “binds”.
